# Tests used:
# [1] = system: parathyroid hormone (PTH); experiment: parathyroid hormone (PTH) suppression in a rat model; type: in vivo; details: 30 mg/kg test compound, levels measured after 15 minutes; for In Vivo: % blood serum PTH vs. vehicle: oral, 30 mg/kg; for change in vivo at 30 mg/kg: Rattus norvegicus, po, 0.25 h, read-out: In Vivo: % blood serum PTH vs. vehicle
# Method: (§1) In vitro potency is measured via calcium mobilization in a fluorescence assay using HEK 293 cells transfected to express the same calcium sensing receptor as found in the human parathyroid gland. In this assay calcium-sensing receptor agonists and antagonists are detected. The assay is conducted in a 96-well plate format with the use of FLIPR (fluorescent imaging plate reader; Molecular Devices, Sunnyvale, Calif.). The HEK 293 cell media is replaced with the fluorescence dye FLUO-3AM and Pluronic detergent in FLIPR assay buffer. Cells are incubated 60 min (in the dark, at room temperature), then washed with assay buffer and placed in FLIPR. Images are collected by FLIPR in the absence of test compound, then in the presence of test compound (at 25 µM) and then after addition of a calcium challenge (at 1 mM). In the agonist assay the difference between maximum and minimum fluorescence values is measured following test compound addition. Hits have a change in fluorescence greater than or equal to 50% of that seen with a 1 mM calcium standard. In the antagonist assay the difference between maximum and minimum fluorescence values is measured following the calcium challenge addition. When compared to challenge in the absence of test compound, hits reduce fluorescence by at least 50%. In vivo activity is measured via parathyroid hormone (PTH) supression by test compounds in a rat model. Compound is administered orally using 0.5% Tween 80 in distilled water as vehicle, with a volume of approximately 10 mL/kg body weight. Blood samples are taken at 15 minutes (and 4 h if required) post oral dosing. Serum PTH levels are determined with an immunoradiometric assay.
# (§2) Not all compounds were tested in each of the screens. […] Each entry represents a mixture of cis and trans cyclopropanes (R,S; S,R; R,R; S,S) with R absolute configuration when R^3=CH3. Table 2 lists compounds that are trans at the cyclopropane (R,R; S,S) with R absolute configuration at the benzylamine position, or without stereochemistry at the benzylamine. Table 3 lists compounds with R,R absolute stereochemistry at the cyclopropane and a mixture of stereochemistry at the benzylamine position. 20. In vitro data in Table 1 is percent activation of the calcium-sensing receptor versus baseline. In vitro data in Tables 2-7 is expressed as a CS50, where potency is at 50% of the calcium standard potency, and the unit is μM. In vivo data represents % blood serum PTH vs. vehicle at 30 mg/kg test compound, levels measured after 15 minutes.
# [2] = biological target: T1, calcium sensing receptor as found in the human parathyroid gland (Homo sapiens, UniProt P41180); experiment: calcium mobilization fluorescence (FLIPR) assay, agonist mode; type: cell-based; details: transfected HEK 293 cells; 1 mM calcium standard; Tables 2-7; read-out: In Vitro: CS50, where potency is at 50% of the calcium standard potency
# T1 construct: expressed in transfected cells; host or cells: HEK 293
# T1 sequence (P41180 20-1078): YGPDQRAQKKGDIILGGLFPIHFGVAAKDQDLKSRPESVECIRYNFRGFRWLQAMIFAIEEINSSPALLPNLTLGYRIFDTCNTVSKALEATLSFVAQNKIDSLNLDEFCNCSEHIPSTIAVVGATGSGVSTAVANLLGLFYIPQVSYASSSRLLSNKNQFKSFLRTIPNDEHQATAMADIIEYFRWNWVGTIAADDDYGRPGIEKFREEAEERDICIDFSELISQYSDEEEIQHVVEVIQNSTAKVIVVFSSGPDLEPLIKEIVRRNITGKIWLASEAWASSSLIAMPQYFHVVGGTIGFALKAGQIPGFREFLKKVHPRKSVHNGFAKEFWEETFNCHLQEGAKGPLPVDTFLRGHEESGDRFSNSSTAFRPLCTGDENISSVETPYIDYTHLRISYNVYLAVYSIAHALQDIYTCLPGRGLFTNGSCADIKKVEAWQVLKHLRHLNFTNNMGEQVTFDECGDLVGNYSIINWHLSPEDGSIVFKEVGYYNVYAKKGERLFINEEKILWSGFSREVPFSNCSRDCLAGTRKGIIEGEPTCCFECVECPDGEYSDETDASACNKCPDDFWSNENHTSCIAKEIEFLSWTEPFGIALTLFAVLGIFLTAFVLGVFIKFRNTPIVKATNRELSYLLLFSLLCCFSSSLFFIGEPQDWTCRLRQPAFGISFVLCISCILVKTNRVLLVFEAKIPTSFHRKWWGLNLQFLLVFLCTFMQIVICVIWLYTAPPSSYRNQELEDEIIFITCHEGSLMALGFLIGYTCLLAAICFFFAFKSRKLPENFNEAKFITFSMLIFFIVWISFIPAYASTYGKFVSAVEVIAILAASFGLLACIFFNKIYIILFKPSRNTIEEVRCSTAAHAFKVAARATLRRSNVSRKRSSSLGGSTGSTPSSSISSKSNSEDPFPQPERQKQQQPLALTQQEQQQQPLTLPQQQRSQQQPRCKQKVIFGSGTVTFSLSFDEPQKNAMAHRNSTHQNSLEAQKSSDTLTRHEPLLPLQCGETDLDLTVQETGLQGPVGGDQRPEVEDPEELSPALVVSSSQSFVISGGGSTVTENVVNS
# Method: as §1, §2
Compound,EC50 [2] [µM],In Vivo: % blood serum PTH vs. vehicle [1],change in vivo at 30 mg/kg [1] [%]
c1ccc([C@@H]2C[C@H]2CNCc2ccccn2)cc1 (relative stereo) [Compound 28],> 25,–,72
c1ccc([C@@H]2C[C@H]2CNCc2cccnc2)cc1 (relative stereo) [Compound 29],> 25,–,87.8
c1ccc([C@@H]2C[C@H]2CNCc2ccncc2)cc1 (relative stereo) [Compound 30],> 25,–,70.1
COc1cccc(CNC[C@@H]2C[C@H]2c2ccccc2)c1 (relative stereo) [Compound 31],> 25,–,-26.5
COc1cccc([C@@H](C)NCC2CC2c2cc(C)ccc2C)c1 (stereo partly shown) [Compound 1],–,+31.4%,–
COc1cccc([C@@H](C)NCC2CC2c2ccccc2)c1 (stereo partly shown) [Compound 3],–,–,-62.1
COc1cccc([C@@H](C)NCC2CC2c2ccccc2Cl)c1 (stereo partly shown) [Compound 4],–,–,-11.9
COc1cccc([C@@H](C)NCC2CC2c2ccc(Cl)cc2)c1 (stereo partly shown) [Compound 6],–,–,-9.3
COc1cccc([C@@H](C)NCC2CC2c2ccccn2)c1 (stereo partly shown) [Compound 9],6.5,–,–
COc1cccc([C@@H](C)NCC2CC2c2ccccc2C(F)(F)F)c1 (stereo partly shown) [Compound 14],52.2,–,-34.7
COc1cccc([C@@H](C)NCC2CC2c2cccs2)c1 (stereo partly shown) [Compound 25],7.1,–,-89
COc1cccc([C@@H](C)NCC2CC2c2cccn2C)c1 (stereo partly shown) [Compound 27],7.8,–,–
COc1cccc([C@@H](C)NCC2CC2c2cc(C)ccc2C)c1 (stereo partly shown) [Compound 32],12.4,-13.5%,–
COc1cccc([C@@H](C)NCC2CC2c2cc(C)ccc2C)c1 (stereo partly shown) [Compound 33],> 25,-47.6%,–
COc1cccc([C@@H](C)NCC2CC2c2ccc([N+](=O)[O-])cc2[N+](=O)[O-])c1 (stereo partly shown) [Compound 34],> 25,–,–
COc1cccc([C@@H](C)NCC2CC2c2ccc(Cl)s2)c1 (stereo partly shown) [Compound 35],–,–,-15.4
COc1cccc([C@@H](C)NCC2CC2c2ccc(C)s2)c1 (stereo partly shown) [Compound 36],–,–,-34.2

Compound,EC50 [2] [µM],In Vivo: % blood serum PTH vs. vehicle [1],change in vivo at 30 mg/kg [1] [%]
COc1cccc([C@@H](C)NCC2CC2c2cc(Br)cs2)c1 (stereo partly shown) [Compound 37],–,–,-24.8
COc1cccc([C@@H](C)NCC2CC2c2sccc2C)c1 (stereo partly shown) [Compound 38],–,–,-51
CC(NC[C@@H]1C[C@H]1c1ccccc1)c1cccc(OC(F)(F)F)c1 (stereo partly shown) [Compound 39],–,–,0
Cc1cccc(C(C)NC[C@@H]2C[C@H]2c2ccccc2)c1 (stereo partly shown) [Compound 40],> 25,–,-51.2
CC(NC[C@@H]1C[C@H]1c1ccccc1)c1cccc(C(F)(F)F)c1 (stereo partly shown) [Compound 41],> 25,–,-21.4
CCc1cccc(C(C)NC[C@@H]2C[C@H]2c2ccccc2)c1 (stereo partly shown) [Compound 42],> 25,–,-78.9
"CCC(NC[C@@H]1C[C@H]1c1ccccc1)c1cccc(OC)c1 (stereo partly drawn) [Compound 43, N-((R,R)-2-phenylcyclopropanylmethyl)-1-(3-methoxyphenyl)propylamine]",> 25,–,-6.3
COc1cccc(C(C)(C)NC[C@@H]2C[C@H]2c2ccccc2)c1 [Compound 44],> 25,–,-25.8
COc1cccc([C@@H](C)N(C[C@@H]2C[C@H]2c2ccccc2)C(=O)C(C)(C)C)c1 [Compound 55],> 25,–,–
COc1cccc([C@@H](C)NC[C@H]2C[C@@H]2c2cccc(F)c2)c1 [Compound 71],–,–,-78.7
COc1cccc([C@@H](C)NC[C@@H]2C[C@H]2c2cccc(F)c2)c1 [Compound 72],–,-93.4%,–
COc1cccc([C@@H](C)NCC2CC2c2cccc(F)c2)c1 (stereo partly shown) [Compound 73],–,-52.5%,–
COc1cccc([C@@H](C)NCC2CC2c2cccc(F)c2)c1 (stereo partly shown) [Compound 74],–,-2.6%,–
COc1cccc([C@H](C)NC[C@H]2C[C@@H]2c2cccc(F)c2)c1 [Compound 75],–,–,-0.9
COc1cccc([C@H](C)NC[C@@H]2C[C@H]2c2cccc(F)c2)c1 [Compound 76],–,–,16.8
COc1cccc([C@H](C)NCC2CC2c2cccc(F)c2)c1 (stereo partly shown) [Compound 77],–,+2.1%,–
COc1cccc([C@H](C)NCC2CC2c2cccc(F)c2)c1 (stereo partly shown) [Compound 78],–,+21.4%,–

# The next lines start with results.
EC50 [2] [µM],Compound,In Vivo: % blood serum PTH vs. vehicle [1],change in vivo at 30 mg/kg [1] [%]
11,"COc1cccc([C@@H](C)NC[C@@H]2C[C@H]2c2cccc(F)c2)c1 (mixture of isomers) [Compound 20, N-(trans-2-(3-fluorophenyl)cyclopropanylmethyl)-1-(R)-(3-methoxyphenyl)ethylamine]",-95.2%,–
11.3,"COc1cccc([C@@H](C)NCC2CC2c2ccccc2F)c1 (single isomer, unassigned) [Compound 18]",-83.9%,–
9.6,"COc1cccc([C@@H](C)NCC2CC2c2ccccc2F)c1 (single isomer, unassigned) [Compound 19]",-89.2%,–
37.1,COc1cccc([C@@H](C)NCC2CC2c2cccnc2)c1 (stereo partly shown) [Compound 10],–,–
> 25,COc1cccc([C@@H](C)NCC2CC2c2ccncc2)c1 (stereo partly shown) [Compound 11],–,–
8.8,COc1cccc([C@@H](C)NCC2CC2c2ccccc2C)c1 (stereo partly shown) [Compound 12],–,-95.8
9.5,COc1cccc([C@@H](C)NCC2CC2c2cccc(C)c2)c1 (stereo partly shown) [Compound 13],–,-98.2
13.5,COc1cccc([C@@H](C)NCC2CC2c2cccc(C(F)(F)F)c2)c1 (stereo partly shown) [Compound 15],–,4.2
> 25,COc1cccc([C@@H](C)NCC2CC2c2ccc(C(F)(F)F)cc2)c1 (stereo partly shown) [Compound 16],–,-14.4
5,COc1cccc([C@@H](C)NCC2CC2c2ccccc2F)c1 (stereo partly shown) [Compound 17],–,-94.8
10.9,COc1cccc([C@@H](C)NC[C@H]2C[C@@H]2c2cccc(F)c2)c1 [Compound 21],–,–
9.3,COc1cccc([C@@H](C)NC[C@@H]2C[C@H]2c2cccc(F)c2)c1 [Compound 22],-93.4%,–
13.5,COc1cccc([C@@H](C)NCC2CC2c2ccc(F)cc2)c1 (stereo partly shown) [Compound 23],–,-55
11.9,COc1cccc([C@@H](C)NCC2CC2c2c(F)cccc2F)c1 (stereo partly shown) [Compound 24],–,-85.4
3.4,COc1cccc([C@@H](C)NCC2CC2c2ccsc2)c1 (stereo partly shown) [Compound 26],–,–
